Test results published in the OligoGym collection.
Several values for one entry are separate records, joined by “and”; a condition that tells them apart may be missing. Equal entries are not always repeated. After the bases stand the sugars from the 5' end (letter, count) and the backbone: PS all phosphorothioate, else s phosphorothioate and o phosphodiester by linkage. Methylation of C is not given here. e = 2'-O-(2-methoxyethyl) (MOE); k = constrained ethyl (cEt); d = 2'-deoxy (DNA)

Biological target: SOD1
Conditions: ASO

**Q.** Which target mRNA inhibition (HepG2, 3 µM) does the source give for “TACTTTCTTCATTTCCA (sugars e3 k2 d7 k2 e3, PS)” here?
**A.** 18%

**Q.** With “TATACAAATCTTCCAAG (sugars e3 k2 d7 k2 e3, PS)” as the sequence, how does the target mRNA inhibition (HepG2, 3 µM) read?
**A.** 11%

**Q.** Which target mRNA inhibition (HepG2, 4 µM) does the source give for “TATAGGCCAGACCTCCGCGC (sugars e5 d10 e5, PS)” here?
**A.** 40%

**Q.** “TATCAGGATACATTTCTACA (sugars e5 d10 e5, PS)” was tested. Which target mRNA inhibition (HepG2, 0.1875 µM) did it give?
**A.** 13%

**Q.** What about the target mRNA inhibition (HepG2, 0.75 µM) of the same sequence?
**A.** 16%

**Q.** And the target mRNA inhibition (HepG2, 3 µM)?
**A.** 48%

**Q.** What about the target mRNA inhibition (HepG2, 5 µM) of the same sequence?
**A.** 58%

**Q.** And the target mRNA inhibition (HepG2, 12 µM)?
**A.** 81%

**Q.** “TCACACAATTACACTTT (sugars e2 k2 d9 k2 e2, PS)” was tested. Which target mRNA inhibition (HepG2, 5 µM) did it give?
**A.** 39%

**Q.** For “TCAGCAGTCACATTGCCCAA (sugars e5 d10 e5, PS)”, which target mRNA inhibition (HepG2, 5 µM) is on record?
**A.** 52% and 42%

**Q.** With “TCAGTTTCTCACTACAG (sugars e2 k2 d9 k2 e2, PS)” as the sequence, how does the target mRNA inhibition (HepG2, 5 µM) read?
**A.** 43%

**Q.** How did the target mRNA inhibition (HepG2, 5 µM) turn out when “TCATAAATCAGTTTCTCACT (sugars e5 d10 e5, PS)” was run?
**A.** 21%

**Q.** For “TCATCCTTTGGCCCACC (sugars e3 k2 d7 k2 e3, PS)”, which target mRNA inhibition (HepG2, 3 µM) is on record?
**A.** 27%

**Q.** Which target mRNA inhibition (HepG2, 3 µM) does the source give for “TCATTTCCACCTTTGCC (sugars e3 k2 d7 k2 e3, PS)” here?
**A.** 57%

**Q.** For “TCCAACATGCCTCTCTT (sugars e3 k2 d7 k2 e3, PS)”, which target mRNA inhibition (HepG2, 3 µM) is on record?
**A.** 0%

**Q.** How did the target mRNA inhibition (HepG2, 3 µM) turn out when “TCCATGCAGGCCTTCAG (sugars e3 k2 d7 k2 e3, PS)” was run?
**A.** 18%

**Q.** How did the target mRNA inhibition (HepG2, 3 µM) turn out when “TCCATTACTTTCCTTCT (sugars e3 k2 d7 k2 e3, PS)” was run?
**A.** 18%

**Q.** Which target mRNA inhibition (HepG2, 3 µM) does the source give for “TCCTTCTGCTCGAAATT (sugars e3 k2 d7 k2 e3, PS)” here?
**A.** 14%

**Q.** For “TCCTTTGGCCCACCGTGTTT (sugars e5 d10 e5, PS)”, which target mRNA inhibition (HepG2, 5 µM) is on record?
**A.** 30% and 23%

**Q.** What does the source list for “TCTACAGCTAGCAGGAT (sugars e2 k2 d8 k2 e3, PS)”?
**A.** target mRNA inhibition (HepG2, 0.1875 µM): 23%; target mRNA inhibition (HepG2, 0.75 µM): 51%; target mRNA inhibition (HepG2, 3 µM): 74%; target mRNA inhibition (HepG2, 4 µM): 75%; target mRNA inhibition (HepG2, 12 µM): 91%

**Q.** For “TCTACAGCTAGCAGGAT (sugars e3 k2 d7 k2 e3, PS)”, which target mRNA inhibition (HepG2, 3 µM) is on record?
**A.** 51%

**Q.** With “TCTGACAAGTTTAATAC (sugars e2 k2 d9 k2 e2, PS)” as the sequence, how does the target mRNA inhibition (HepG2, 5 µM) read?
**A.** 20%

**Q.** How did the target mRNA inhibition (HepG2, 3 µM) turn out when “TCTGCTCGAAATTGATG (sugars e3 k2 d7 k2 e3, PS)” was run?
**A.** 34%

**Q.** For “TCTGCTTTTTCATGGAC (sugars e3 k2 d7 k2 e3, PS)”, which target mRNA inhibition (HepG2, 3 µM) is on record?
**A.** 55%

**Q.** How did the target mRNA inhibition (HepG2, 5 µM) turn out when “TCTGTGATTTAAGTCTG (sugars e2 k2 d9 k2 e2, PS)” was run?
**A.** 49%

**Q.** “TCTGTGATTTAAGTCTGGCA (sugars e5 d10 e5, PS)” was tested. Which target mRNA inhibition (HepG2, 5 µM) did it give?
**A.** 44%

**Q.** With “TCTTCCAAGTGATCATA (sugars e2 k2 d8 k2 e3, PS)” as the sequence, how does the target mRNA inhibition (HepG2, 5 µM) read?
**A.** 33%

**Q.** Which target mRNA inhibition (HepG2, 5 µM) does the source give for “TCTTCCAAGTGATCATA (sugars e2 k2 d9 k2 e2, PS)” here?
**A.** 43%

**Q.** For “TCTTTGTCAGCAGTCACATT (sugars e5 d10 e5, PS)”, which target mRNA inhibition (HepG2, 5 µM) is on record?
**A.** 20% and 11%

**Q.** How did the target mRNA inhibition (HepG2, 5 µM) turn out when “TCTTTTAATAGCCTCAT (sugars e2 k2 d8 k2 e3, PS)” was run?
**A.** 52%

**Q.** How did the target mRNA inhibition (HepG2, 5 µM) turn out when “TCTTTTAATAGCCTCAT (sugars e2 k2 d9 k2 e2, PS)” was run?
**A.** 56%

**Q.** With “TGAACATGGAATCCATG (sugars e3 k2 d7 k2 e3, PS)” as the sequence, how does the target mRNA inhibition (HepG2, 3 µM) read?
**A.** 2%

**Q.** With “TGACAAGTTTAATACCC (sugars e2 k2 d9 k2 e2, PS)” as the sequence, how does the target mRNA inhibition (HepG2, 5 µM) read?
**A.** 52%

**Q.** Which target mRNA inhibition (HepG2, 3 µM) does the source give for “TGACAAGTTTAATACCC (sugars e3 k2 d7 k2 e3, PS)” here?
**A.** 27%

**Q.** With “TGATCATAAATCAGTTT (sugars e2 k2 d8 k2 e3, PS)” as the sequence, how does the target mRNA inhibition (HepG2, 5 µM) read?
**A.** 49%

**Q.** How did the target mRNA inhibition (HepG2, 4 µM) turn out when “TGCAACGGAAACCCCAGACG (sugars e5 d10 e5, PS)” was run?
**A.** 21%

**Q.** For “TGCCATACAGGGTTTTT (sugars e2 k2 d8 k2 e3, PS)”, which target mRNA inhibition (HepG2, 5 µM) is on record?
**A.** 21%

**Q.** For “TGCCTCTCTTCATCCTT (sugars e3 k2 d7 k2 e3, PS)”, which target mRNA inhibition (HepG2, 3 µM) is on record?
**A.** 6%

**Q.** “TGCTTTTTCATGGACCA (sugars e3 k2 d7 k2 e3, PS)” was tested. Which target mRNA inhibition (HepG2, 3 µM) did it give?
**A.** 51%

**Q.** With “TGGATTCTTTTAATAGCCTC (sugars e5 d10 e5, PS)” as the sequence, how does the target mRNA inhibition (HepG2, 5 µM) read?
**A.** 13%

**Q.** How did the target mRNA inhibition (HepG2, 5 µM) turn out when “TGGCAAAATACAGGTCA (sugars e2 k2 d9 k2 e2, PS)” was run?
**A.** 43%

**Q.** How did the target mRNA inhibition (HepG2, 4 µM) turn out when “TGGGCGATCCCAATTAC (sugars e2 k2 d8 k2 e3, PS)” was run?
**A.** 19%

**Q.** With “TGGTCTCCTGAGAGTGAGAT (sugars e5 d10 e5, PS)” as the sequence, how does the target mRNA inhibition (HepG2, 5 µM) read?
**A.** 24%

**Q.** With “TGTGATTTAAGTCTGGC (sugars e2 k2 d8 k2 e3, PS)” as the sequence, how does the target mRNA inhibition (HepG2, 5 µM) read?
**A.** 45%

**Q.** Which target mRNA inhibition (HepG2, 5 µM) does the source give for “TGTGATTTAAGTCTGGCAAA (sugars e5 d10 e5, PS)” here?
**A.** 34%

**Q.** Which target mRNA inhibition (HepG2, 3 µM) does the source give for “TGTTTATTGGGCGATCC (sugars e3 k2 d7 k2 e3, PS)” here?
**A.** 21%

**Q.** With “TTAAGTCTGGCAAAATA (sugars e2 k2 d8 k2 e3, PS)” as the sequence, how does the target mRNA inhibition (HepG2, 5 µM) read?
**A.** 27%

**Q.** How did the target mRNA inhibition (HepG2, 0.1875 µM) turn out when “TTAATGTTTATCAGGAT (sugars e2 k2 d8 k2 e3, PS)” was run?
**A.** 50%

**Q.** What about the target mRNA inhibition (HepG2, 0.75 µM) of the same sequence?
**A.** 86%

**Q.** What about the target mRNA inhibition (HepG2, 3 µM) of the same sequence?
**A.** 90%

**Q.** What about the target mRNA inhibition (HepG2, 4 µM) of the same sequence?
**A.** 90%

**Q.** What about the target mRNA inhibition (HepG2, 12 µM) of the same sequence?
**A.** 97%

**Q.** What does the source list for “TTAATGTTTATCAGGAT (sugars e2 k2 d9 k2 e2, linkages s1 o3 s9 o1 s2)”?
**A.** target mRNA inhibition (A431, 0.12 µM): 12%; target mRNA inhibition (A431, 0.6 µM): 48%; target mRNA inhibition (A431, 3 µM): 54%; target mRNA inhibition (A431, 15 µM): 72%

**Q.** “TTAATGTTTATCAGGAT (sugars ekekddddddddeeeee, linkages s1 o2 s9 o2 s2)” was tested. Which target mRNA inhibition (A431, 0.062 µM) did it give?
**A.** 6%

**Q.** What about the target mRNA inhibition (A431, 0.185 µM) of the same sequence?
**A.** 21%

**Q.** What about the target mRNA inhibition (A431, 0.556 µM) of the same sequence?
**A.** 44%

**Q.** What about the target mRNA inhibition (A431, 1.667 µM) of the same sequence?
**A.** 76%

**Q.** What about the target mRNA inhibition (A431, 5 µM) of the same sequence?
**A.** 68%

**Q.** What about the target mRNA inhibition (A431, 15 µM) of the same sequence?
**A.** 77%

**Q.** What about the target mRNA inhibition (SH-SY5Y, 0.062 µM) of the same sequence?
**A.** 0%

**Q.** And the target mRNA inhibition (SH-SY5Y, 0.185 µM)?
**A.** 0%

**Q.** And the target mRNA inhibition (SH-SY5Y, 0.556 µM)?
**A.** 34%

**Q.** What about the target mRNA inhibition (SH-SY5Y, 1.667 µM) of the same sequence?
**A.** 61%

**Q.** What about the target mRNA inhibition (SH-SY5Y, 5 µM) of the same sequence?
**A.** 81%

**Q.** And the target mRNA inhibition (SH-SY5Y, 15 µM)?
**A.** 90%

**Q.** For “TTACACCACAAGCCAAA (sugars e2 k2 d9 k2 e2, PS)”, which target mRNA inhibition (HepG2, 4 µM) is on record?
**A.** 63%

**Q.** “TTACAGTGTTTAATGTT (sugars e3 k2 d7 k2 e3, PS)” was tested. Which target mRNA inhibition (HepG2, 3 µM) did it give?
**A.** 18%
